Data taken from PubChem BioAssay AID624167 (Sanford-Burnham Center for Chemical Genomics, 2012).
The source made the active and inactive calls.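 Rule for the calls: active = mean IC50 for reducing PEG3 promoter reporter signal at or below a set limit, with IC50 above the limit in both counter screens; inactive = the rest, including counter screen hits.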

Key:
[1] = target: PEG-3 (UniProt Q6IN02); assay: Peg3 promoter luciferase inhibitors, potency, dose response, cell-based, HeLa, CREF/GAPDH counter-screen panel (AID 624167); settings: HeLa PEG-Prom luciferase reporter, overnight, CREF/GAPDH counter-screens, mean of runs
Sequence of PEG-3 (UniProt Q6IN02) (Q6IN02 whole entry, looked up): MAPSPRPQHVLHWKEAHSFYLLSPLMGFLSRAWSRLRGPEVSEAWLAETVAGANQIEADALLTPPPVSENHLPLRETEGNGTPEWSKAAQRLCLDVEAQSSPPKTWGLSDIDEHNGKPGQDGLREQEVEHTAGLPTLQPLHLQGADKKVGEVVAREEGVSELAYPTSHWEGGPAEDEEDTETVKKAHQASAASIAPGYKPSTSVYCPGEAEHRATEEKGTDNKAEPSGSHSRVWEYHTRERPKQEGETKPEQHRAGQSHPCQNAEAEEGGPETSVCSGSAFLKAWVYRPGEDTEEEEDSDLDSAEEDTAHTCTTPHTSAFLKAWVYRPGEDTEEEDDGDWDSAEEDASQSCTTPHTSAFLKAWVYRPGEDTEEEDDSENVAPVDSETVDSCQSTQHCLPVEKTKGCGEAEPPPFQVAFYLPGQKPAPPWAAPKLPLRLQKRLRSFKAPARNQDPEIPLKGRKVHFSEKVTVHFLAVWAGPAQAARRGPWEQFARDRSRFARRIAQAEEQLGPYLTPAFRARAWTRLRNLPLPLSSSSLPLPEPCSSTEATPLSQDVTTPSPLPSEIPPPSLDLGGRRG

[2] = system: PEG-3; assay: as above; settings: HeLa PEG-Prom luciferase reporter, overnight, CREF/GAPDH counter-screens
[3] = run 1, dose range 1, individual replicate IC50 per panel
[4] = run 2, dose range 1, individual replicate IC50 per panel

Compound | IC50 [1] | IC50 [2, 3] | IC50 [2, 4]
Nc1nc(CCl)nc(Nc2cccc3ccccc23)n1 | > 100 µM (inactive) | > 100 µM | > 100 µM
COc1ccc(C23CC4CC(CC(C4)C2)C3)cc1C(=O)NCCN(C)C | inactive | 20.6 µM | 29.9 µM
O=C(Nc1ccc(-c2cn3ccsc3n2)cc1)c1ccc(F)c(S(=O)(=O)N2CCOCC2)c1 | > 100 µM (inactive) | > 100 µM | > 100 µM
COc1nc(N)c(C#N)c(-c2ccc(N(C)CCC#N)cc2)c1C#N | inactive | 6.32 µM | 35.8 µM
Cc1cccc(CN2C(=O)/C(=C\c3ccc(C(=O)NCCN4CCOCC4)cc3)Sc3ccccc32)c1 | inactive | 18.2 µM | 22.1 µM
O=C1OCCC1Sc1nnc(-c2ccc(Cl)cc2Cl)o1 (configuration not stated) | inactive | 6.82 µM | 35.5 µM
O=C1c2ccccc2C(=O)C12OC2c1ccc(Cl)cc1Cl (configuration not stated) | inactive | 28.4 µM | 14.6 µM
C/C(=N\N=C(N)N)c1ccc(Cl)c(Cl)c1 | 18.7 µM | 20.3 µM | 17 µM
COc1ccc(CC(N)c2csc(Nc3cccc(OC)n3)n2)cc1 (configuration not stated) | 15.9 µM | 17.6 µM | 14.2 µM
Cc1ccc2[nH]c3c(c2c1)CCCC3NC(=O)CCl (configuration not stated) | inactive | 23.3 µM | 49.8 µM
Cc1nc(N2CCN(c3ccccn3)CC2)c2c(C)c(C(=O)Nc3ccccc3F)sc2n1 | inactive | 9.97 µM | > 100 µM
CCC1=C(CC2NCCc3ccccc32)CC2c3cc(OC)c(OC)cc3CCN2C1 (configuration not stated) | 14.2 µM | 15.1 µM | 13.3 µM
CC(=O)Nc1ccc(Nc2nc(C)c([N+](=O)[O-])c(Nc3ccccc3)n2)cc1 | inactive | 22.6 µM | > 100 µM
Cc1c(C#N)c(N)nc2c3c(sc12)NC(=O)CC3c1ccc(Cl)cc1 (configuration not stated) | 14.2 µM | 17.4 µM | 11 µM
COc1ccc(-n2c(/C=C/c3ccc(O)c(OC)c3)nc3ccccc3c2=O)cc1 | 15.8 µM | 15.8 µM | 15.8 µM
COc1ccc(-c2ccc3[nH]c4c(c3c2)CCN2C[C@@H]([C@H](C)O)[C@@H](N(C)C(=O)Nc3cc(Cl)cc(Cl)c3)C[C@@H]42)cc1 | inactive | 43.8 µM | 30.8 µM
O=C(CCl)N1N=C(c2ccco2)CC1c1cccs1 (configuration not stated) | inactive | 24.2 µM | 30.4 µM

Compound | IC50 [1] | IC50 [2, 3] | IC50 [2, 4]
COc1ccc(C2c3c(ncn(CCCN4CCOCC4)c3=N)Oc3ccc4ccccc4c32)cc1OC (configuration not stated) | 18.7 µM | 20.9 µM | 16.5 µM
N#Cc1c(N)nc(SCc2ccncc2)c(C#N)c1-c1cccs1 | 17.1 µM | 21.4 µM | 12.8 µM
Cc1nn(C(C)(C)C)c(C)c1/C=N/OC(=O)Nc1ccc(Cl)cc1 | 3.17 µM | 6.13 µM | < 0.2 µM
Cc1ccc(CC2(OCCN(C)C)CCC(C(C)(C)C)CC2)cc1 (configuration not stated) | 16.8 µM | 19.1 µM | 14.6 µM
Cc1ccc(S(=O)(=O)c2nc(-c3ccccc3Cl)oc2N(C)C2CCN(C)CC2)cc1 | inactive | 32.7 µM | 20.6 µM
CN(C)CCNC(=O)c1sc2nc(-c3ccccc3)cc(C(F)(F)F)c2c1N | inactive | 20.5 µM | 19.8 µM
O=S(=O)(Nc1cccc2ncccc12)c1cccs1 | 13.2 µM | 17.5 µM | 8.93 µM
O=C1/C(=C/c2ccccc2Cl)SC(=S)N1CCCC(=O)N(CCO)c1ccccc1 | 17.8 µM | 18.9 µM | 16.7 µM
COc1cccc(C(=O)c2sc(NC(C)C)nc2N)c1 | 15 µM | 16.5 µM | 13.6 µM
Cc1ccc2sc(N(CCCN(C)C)C(=O)c3ccc(S(=O)(=O)N(C)Cc4ccccc4)cc3)nc2c1C | 13.7 µM | 19 µM | 8.42 µM
Cc1ccc2nc(N(CCCN(C)C)C(=O)c3ccc4c(c3)CCCC4)sc2c1 | 19.8 µM | 22 µM | 17.6 µM
Cc1cc(C)cc(NC(=O)Cn2c(=O)oc3cc(S(=O)(=O)N4CCC(C)CC4)ccc32)c1 | inactive | > 100 µM | 7.9 µM
COc1ccccc1CN(C)C(=O)c1cc(-c2cc(OC)c(OC)c(OC)c2)nc2ccccc12 | inactive | 19.2 µM | 40 µM
O=C(Nc1ccc(CN2CCCCC2)cc1)Nc1ccc(Br)cc1Cl | inactive | 20.4 µM | 19.8 µM
COc1cc(/C=C/C(=O)N2CCC=CC2=O)cc(OC)c1OC | 14 µM | 15.9 µM | 12.1 µM
COC(=O)Cc1[nH]n(-c2nc3ccccc3s2)c(=O)c1C(C)=Nc1ccc(Cl)cc1 | 12.5 µM | 24.7 µM | 0.372 µM
COC(=O)CSC1=NS(=O)(=O)c2ccccc21 | inactive | > 100 µM | 33.5 µM
